Data taken from patent publication US8404836B2, “3-phenyl acrylic acid compound activators of type PPAR receptors and pharmaceutical/cosmetic compositions comprised thereof” (Galderma Research & Development, priority 2007, dated 2013).

Assays:
PPARγ = target: T1, PPARγ (Homo sapiens, UniProt P37231); experiment: PPAR transactivation test in crossed curves (HeLN luciferase reporter), PPARγ; type: cell-based; conditions: HeLN cells stably transfected with Gal-hPPARγ and luciferase reporter; crossed curves vs reference agonist, Schild regression; read-out: PPAR gamma Kd app
T1 sequence (P37231 238-505 limits assumed): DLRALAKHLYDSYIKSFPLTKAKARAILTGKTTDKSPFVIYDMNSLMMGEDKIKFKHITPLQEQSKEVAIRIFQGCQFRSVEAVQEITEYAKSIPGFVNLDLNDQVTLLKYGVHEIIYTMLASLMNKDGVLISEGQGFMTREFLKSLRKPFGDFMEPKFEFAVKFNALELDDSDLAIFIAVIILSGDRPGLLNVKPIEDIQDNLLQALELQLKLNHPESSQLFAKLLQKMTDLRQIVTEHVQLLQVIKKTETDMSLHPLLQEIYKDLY
Protocol: (§1) Activation of the PPAR receptors by an agonist (activator) in HeLN cells leads to the expression of a reporter gene, luciferase, which, in the presence of a substrate, generates light. The modulation of the PPAR receptors is measured by quantifying the luminescence produced after incubation of the cells in the presence of a reference agonist. The ligands will displace the agonist from its site. The activity is measured by quantifying the light produced. This measurement makes it possible to determine the modulating activity of the compounds according to the invention by determining the constant representing the affinity of the molecule for the PPAR receptor. This value, which can fluctuate according to the basal activity and expression of the receptor, is called apparent Kd (KdApp, nM).
(§2) To determine this constant, “crossed curves” of the test product versus a reference agonist are carried out in a 96-well plate: 10 concentrations of the test product plus a 0 concentration are arranged in rows, and 7 concentrations of the agonist plus a 0 concentration are arranged in columns. This is 88 measurement points for 1 product and 1 receptor. The 8 remaining wells are used for repeatability controls.
(§3) Measurements are also carried out for the total agonist controls with the same products.
(§4) The HeLN cell lines used are stable transfectants containing the plasmids ERE-βGlob-Luc-SV-Neo (reporter gene) and PPAR (α, δ, γ) Gal-hPPAR. These cells are sown in 96-well plates at a rate of 10 000 cells per well in 100 μl of DMEM medium without phenol red and supplemented with 10% of delipidated calf serum. The plates are then incubated at 37° C., 7% CO2 for 16 hours.
(§5) The various dilutions of the test products and of the reference ligand are added at a rate of 5 μl per well. The plates are then incubated for 18 hours at 37° C., 7% CO2.
(§6) The culture medium is removed by inverting and 100 μl of a 1:1 mixture PBS/Luciferine is added to each well. After 5 minutes, the plates are read with the luminescence reader.

PPARα = target: T2, PPARα (Homo sapiens, UniProt Q07869); experiment: PPAR transactivation test in crossed curves (HeLN luciferase reporter), PPARα; type: cell-based; conditions: HeLN cells stably transfected with Gal-hPPARα and luciferase reporter; crossed curves vs reference agonist, Schild regression; read-out: PPAR alpha Kd app
T2 sequence (Q07869 200-468 limits assumed): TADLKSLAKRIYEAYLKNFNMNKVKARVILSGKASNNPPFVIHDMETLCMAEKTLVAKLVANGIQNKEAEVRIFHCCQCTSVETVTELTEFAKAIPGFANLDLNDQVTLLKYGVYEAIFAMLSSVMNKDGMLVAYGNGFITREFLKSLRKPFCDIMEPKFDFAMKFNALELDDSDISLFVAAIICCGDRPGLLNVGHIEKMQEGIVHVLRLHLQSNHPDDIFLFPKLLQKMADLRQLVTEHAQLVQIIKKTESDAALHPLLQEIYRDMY
Protocol: as §1, §2, §3, §4, §5, §6
(§7) These AC50 are used for calculating the Schild regression by plotting a straight line corresponding to the Schild equation (“Quantitation in receptor pharmacology” Terry P. Kenakin, Receptors and Channels, 2001, 7, 371-385) which provides the values of Kd app (in nM).

PPARδ = target: T3, PPARδ (Homo sapiens, UniProt Q03181); experiment: PPAR transactivation test in crossed curves (HeLN luciferase reporter), PPARδ; type: cell-based; conditions: HeLN cells stably transfected with Gal-hPPARδ and luciferase reporter; crossed curves vs reference agonist, Schild regression; read-out: PPARs delta Kd app
T3 sequence (Q03181 171-441 limits assumed): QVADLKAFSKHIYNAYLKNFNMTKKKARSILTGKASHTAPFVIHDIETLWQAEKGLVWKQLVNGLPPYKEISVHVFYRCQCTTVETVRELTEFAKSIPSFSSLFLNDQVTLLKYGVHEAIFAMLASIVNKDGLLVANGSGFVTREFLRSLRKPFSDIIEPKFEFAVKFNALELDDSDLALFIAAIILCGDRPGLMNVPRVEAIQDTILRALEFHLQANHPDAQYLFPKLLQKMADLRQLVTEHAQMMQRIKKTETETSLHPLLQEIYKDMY
Protocol: as §1, §2, §3, §4, §5, §6, §7

Row | SMILES | melting point [°C] | Kd (PPARγ) [nM] | Kd (PPARα) [nM] | Kd (PPARδ) [nM]
1 | CCCCS(=O)(=O)Oc1ccc(CCOc2ccc(/C=C(\OCC)C(=O)O)cc2OC)cc1 [Example 1, (Z)-3-(4-{2-[4-(butane-1-sulfonyloxy)-phenyl]-ethoxy}-3-methoxy-phenyl)-2-ethoxy-acrylic acid] | 94 | 8 |  | 
2 | CCCCOc1cc(/C=C(\OCC)C(=O)O)ccc1CCCc1ccc(OS(=O)(=O)CCCC)c(OC)c1 [Example 3, (Z)-3-(4-{3-[4-(butane-1-sulfonyloxy)-3-methoxy-phenyl]-propyl}-3-butoxy-phenyl)-2-ethoxy-acrylic acid] |  | 15 | 60 | 250
3 | CCCCOc1cc(/C=C(\OCC)C(=O)O)ccc1OCCc1ccc(OS(=O)(=O)CCCC)cc1 [Example 6, (Z)-3-(4-{2-[4-(butane-1-sulfonyloxy)-phenyl]-ethoxy}-3-butoxy-phenyl)-2-ethoxy-acrylic acid] |  | 2 | 120 | 
4 | CCCCOc1cc(/C=C(\OCC)C(=O)O)ccc1OCCc1ccc(OS(C)(=O)=O)c(OC)c1 [Example 7, (Z)-3-{3-butoxy-4-[2-(4-methanesulfonyloxy-3-methoxy-phenyl)-ethoxy]-phenyl}-2-ethoxy-acrylic acid] | 97 | 15 | 250 | 
5 | CCCCOc1cc(/C=C(\OCC)C(=O)O)ccc1OCCc1ccc(OS(=O)(=O)CCCC)c(OC)c1 [Example 8, (Z)-3-(4-{2-[4-(butane-1-sulfonyloxy)-3-methoxy-phenyl]-ethoxy}-3-butoxy-phenyl)-2-ethoxy-acrylic acid] |  | 15 | 120 | 2000
6 | CCCCOc1cc(/C=C(\OCC)C(=O)O)ccc1OCCc1ccc(OS(=O)(=O)CCCC)cc1OC [Example 9, (Z)-3-(4-{2-[4-(butane-1-sulfonyloxy)-2-methoxy-phenyl]-ethoxy}-3-butoxy-phenyl)-2-ethoxy-acrylic acid] |  | 8 | 2000 | 
7 | CCCCOc1cc(/C=C(\OCC)C(=O)O)ccc1OCCc1ccc(OS(C)(=O)=O)cc1OC [Example 10, (Z)-3-{3-butoxy-4-[2-(4-methanesulfonyloxy-2-methoxy-phenyl)-ethoxy]-phenyl}-2-ethoxy-acrylic acid] | 112 |  |  | 
8 | CCCCOc1cc(/C=C(\OCC)C(=O)O)ccc1OCCc1ccc(OCC)c(F)c1 [Example 11, (Z)-3-{3-butoxy-4-[2-(4-ethoxy-3-fluoro-phenyl)-ethoxy]-phenyl}-2-ethoxy-acrylic acid] | 119 |  |  | 
9 | CCCCCOc1ccc(CCOc2ccc(/C=C(\OCC)C(=O)O)cc2OCCCC)cc1F [Example 12, (Z)-3-{3-butoxy-4-[2-(3-fluoro-4-pentyloxy-phenyl)-ethoxy]-phenyl}-2-ethoxy-acrylic acid] | 102 |  |  | 
10 | CCCCOc1cc(/C=C(\OCC)C(=O)O)ccc1OCCc1ccc(OS(=O)(=O)CCCC)c(F)c1 [Example 13, (Z)-3-(4-{2-[4-(butane-1-sulfonyloxy)-3-fluoro-phenyl]-ethoxy}-3-butoxy-phenyl)-2-ethoxy-acrylic acid] | 99 | 8 | 250 | 2000
11 | CCCCCOc1ccc(CCOc2ccc(/C=C(\OCC)C(=O)O)cc2OCCCC)cc1Cl [Example 15, (Z)-3-{3-butoxy-4-[2-(3-chloro-4-pentyloxy-phenyl)-ethoxy]-phenyl}-2-ethoxy-acrylic acid] | 95 |  |  | 
12 | CCCCOc1cc(/C=C(\OCC)C(=O)O)ccc1OCCc1ccc(OS(C)(=O)=O)c(Cl)c1 [Example 16, (Z)-3-{3-butoxy-4-[2-(3-chloro-4-methanesulfonyloxy-phenyl)-ethoxy]-phenyl}-2-ethoxy-acrylic acid] | 113 |  |  | 
13 | CCCCOc1cc(/C=C(\OCC)C(=O)O)ccc1OCCc1ccc(OS(=O)(=O)CCCC)c(Cl)c1 [Example 17, (Z)-3-(4-{2-[4-(butane-1-sulfonyloxy)-3-chloro-phenyl]-ethoxy}-3-butoxy-phenyl)-2-ethoxy-acrylic acid] | 80 | 8 | 60 | 1000
14 | CCO/C(=C\c1ccc(OCCc2ccc(OCC)cc2)c(OC)c1)C(=O)O [Example 19, (Z)-2-ethoxy-3-{4-[2-(4-ethoxy-phenyl)-ethoxy]-3-methoxy-phenyl}-acrylic acid] | 121 |  |  | 
15 | CCCCOc1cc(/C=C(\OCC)C(=O)O)ccc1OCCc1ccc(NS(=O)(=O)CCCC)cc1 [Example 22, (Z)-3-(4-{2-[4-(butane-1-sulfonylamino)-phenyl]-ethoxy}-3-butoxy-phenyl)-2-ethoxy-acrylic acid] | 164 |  |  | 
16 | CCCCOc1cc(/C=C(\OCC)C(=O)O)ccc1OCCc1ccc(N(C)S(C)(=O)=O)cc1 [Example 23, (Z)-3-(3-butoxy-4-{2-[4-(methanesulfonyl-methyl-amino)-phenyl]-ethoxy}-phenyl)-2-ethoxy-acrylic acid] | 112 |  |  | 
